Measured values published in article PMC8041276 (ACS Chemical Neuroscience, 2021).

How the values were obtained:
HepG2 cells = experiment: MTT assay, hepatotoxicity in HepG2 cells; type: cell-based, human; conditions: HepG2, 24 h
Experimental: Human hepatocellular carcinoma cells (HepG2) were cultured using standard procedures (protocol from ATCC). Cells were cultured in Eagle’s minimum essential medium (EMEM) in flasks with an area of 25 cm^2 (Falcon), supplemented with 10% of fetal bovine serum (FBS, Life Technologies) with the addition of 100 IU/mL penicillin (Sigma-Aldrich) and 100 μg/mL streptomycin (Sigma-Aldrich) and incubated at 37 °C in a humidified atmosphere with 5% CO2.
The MTT assay was used to determine the viability of HepG2 cells incubated in the presence of compound 27 and DOX. Cells were seeded at a density of 2 × 10^4 in 96-well plates. […] Following cell exposure to each compound 10 μL of MTT reagent (Sigma-Aldrich) was added to each well. After 4 h of incubation (37 °C, 5% CO2) the culture medium was aspirated and formazan crystals were dissolved in 100 μL of DMSO. Then, optical density (OD) at 570 nm was determined on a plate reader (Spectra Max iD3, Molecular Devices). Each individual experiment was repeated at least three times.

CYP2D6 = target: T1, CYP2D6 (Homo sapiens, UniProt P10635); experiment: CYP2D6 P450-Glo luminescent inhibition assay; type: in vitro ADME; conditions: 0.01–25 μM
T1 construct: purchased Promega (Madison, WI, USA)
Source text: The luminescent CYP3A4 P450-Glo and CYP2D6 P450-Glo assays and protocols were provided by Promega (Madison, WI, USA). The P450-Glo systems based on the conversion proluciferins, derivatives of beetle luciferin [(4S)-4,5-dihydro-2-(6′-hydroxy-2′-benzothiazolyl)-4-thiazolecarboxylic acid] into D-luciferin were catalyzed by respective CYP isoform. D-Luciferin is formed and detected in a second reaction with the luciferin detection reagent (LDR). The amount of light produced in the second reaction is proportional to CYP activity.
The stock solutions (10 mM) of the references ketoconazole (KE), quinidine (QD), and examined compounds were performed in DMSO. The 4× concentrated dilutions were prepared before the assays. […]
The CYPs, proluciferin, and examined compounds (25 μL/well) were preincubated first for 5 min, and next the NADPH regeneration system was added (25 μL) to start the reaction. […] The control reactions for measuring the 100% of CYPs activity and minus-CYP negative control reactions for measure background luminescence were also prepared. […] Finally, LDR was added (50 μL/well), and after 20 min of incubation in room temperature the luminescence signal was measured with a microplate reader (EnSpire, PerkinElmer) in luminescence mode. […] The IC50 values and were calculated using GraphPad Prism 5 software.

T1 sequence (P10635 whole entry): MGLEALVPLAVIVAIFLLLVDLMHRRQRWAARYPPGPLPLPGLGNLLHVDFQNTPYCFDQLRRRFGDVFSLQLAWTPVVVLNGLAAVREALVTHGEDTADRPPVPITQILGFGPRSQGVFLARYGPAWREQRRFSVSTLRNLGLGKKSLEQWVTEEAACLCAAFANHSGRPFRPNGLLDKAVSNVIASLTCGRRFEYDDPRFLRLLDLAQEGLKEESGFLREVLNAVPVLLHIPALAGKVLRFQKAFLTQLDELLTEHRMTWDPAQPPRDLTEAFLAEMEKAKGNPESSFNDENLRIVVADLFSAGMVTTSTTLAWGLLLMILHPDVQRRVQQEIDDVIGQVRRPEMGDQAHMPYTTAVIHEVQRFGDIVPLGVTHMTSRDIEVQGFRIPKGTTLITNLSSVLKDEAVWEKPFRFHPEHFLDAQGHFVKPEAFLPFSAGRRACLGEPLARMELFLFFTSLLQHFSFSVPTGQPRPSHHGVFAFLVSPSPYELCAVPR

O=C(N[C@@H]1CCNC1)c1ccn(S(=O)(=O)c2cccc(Cl)c2)c1-c1ccc(F)cc1 [Compound 27, (R)-2-(4-Fluorophenyl)-1-[(3-chlorophenyl)sulfonyl]-N-(pyrrolidin-3-yl)-1H-pyrrole-3-carboxamide]
metabolic activity of cells (MTT test) (HepG2 cells; 0.1–25 μM): did not impair the metabolic activity of cells
IC50 (HepG2 cells; Homo sapiens, printed in Figure 5A, read-out: IC50, cellular viability (MTT)): 32.3 µM
influence on CYP2D6 activity (CYP2D6): did not significantly influence
